{
  "source": "patent US20240123015A1",
  "about": "“COMPOSITION FOR STRENGTHENING, DEVELOPING, DIFFERENTIATING, OR REGENERATING MUSCLE, OR PREVENTING, AMELIORATING, OR TREATING MUSCLE LOSS OR MUSCLE FATIGUE COMPRISING SCHIZONEPETA TENUIFOLIA EXTRACT AS EFFECTIVE COMPONENT” (KOREA INSTITUTE OF ORIENTAL MEDICINE, priority 2021, published 2024)",
  "key": {"C2C12 cells": {"tested_on": "C2C12 cells", "assay": "Viability recovery of muscle cells under H2O2 oxidative stress (CCK8)", "format": "cell-based, mouse", "details": "H2O2 250 μM alone; compared to control group", "procedure": "Mouse myoblast cell line (i.e., C2C12 cells) was purchased from ATCC (Manassas, VA, USA) and cultured at conditions of 37° C. and 5% CO2 in DMEM medium containing 10% fetal bovine serum. Once the cultured cells reached 80% confluency, the medium was replaced with other DMEM medium (Gibco) containing 2% horse serum, 100 units/ml of penicillin, and 100 μg/ml of streptomycin to induce cell differentiation. The cells were cultured for 5 days after replacing the medium to induce cell differentiation. The culture medium was replaced with fresh medium every 2 days during the differentiation process. To induce muscular atrophy, the cells were treated with H2O2 at a final concentration of 250 μM. Concurrently, the cells were treated with Schizonepeta tenuifolia extract obtained from Example 1 at a concentration of 100 μg/ml. After treating the cells with Schizonepeta tenuifolia extract and culturing them for 24 hours, the medium was replaced with fresh medium containing 10% CCK8 (Dojindo) solution. After incubating for 2 hours, the absorbance was measured at 450 nm to evaluate cell viability. Each sample was measured three times, and the mean value was calculated."}, "BALB/c mice [1]": {"tested_on": "BALB/c mice", "assay": "Rotarod test in dexamethasone-induced animal model of fatigue", "format": "in vivo, mouse", "details": "positive control 50 mg/kg, 2 weeks, 20 rpm", "procedure": "A 6-week-old male BALB/c mice was purchased from Orient Bio Inc. (Seongnam, South Korea) and used them for the test. The test animals were acclimated for one week in a breeding environment with a temperature of 25±2° C., humidity of 50±5%, and a 12-hour light-dark cycle, while being provided with ad libitum access to a standard diet (AIN-76A diet) and water. After the acclimation period, the animals were used for the test. The animal test of the present invention was carried out after obtaining an approval of Korea Institute of Oriental Medicine Institutional Animal Care and Use Committee.\nThe acclimated mice were randomly assigned to different groups: the normal group (Normal), the group administered with dexamethasone group (25 mg/kg), the group administered with Schizonepeta tenuifolia extract (HG, 200 mg/kg), and the positive control group administered with oxymetholone (50 mg/kg). Each group consisted of 6 mice. […]\nMouse was orally administered for 2 weeks with each test material, and then placed on the rod of a Rotarod apparatus and rotated at a speed of 20 rpm. The time until the mouse fell off the rod was then measured. […] The mean value of the three measurements for each animal was taken as the test result value, and the mean and standard deviation were calculated for each group of the six animals."}, "BALB/c mice [2]": {"tested_on": "BALB/c mice", "assay": "Fatigue-related factors (LDH, AST, ALT) in blood serum", "format": "in vivo, mouse", "details": "dexamethasone 25 mg/kg", "experimental": "The extract prepared as a dry powder was dissolved in physiological saline and used for the administration. After two weeks of oral administration of the test sample, the evaluation was made by Rotarod test and also in terms of a change in fatigue-related factors in the blood.\nAt the end of the 1-hour time point after the oral administration of each test material for 2 weeks, the Rotarod test was carried out, and blood samples were collected immediately from the animal heart. The collected blood was centrifuged at 3,000 rpm, 4° C. for 15 minutes to separate the blood serum, which was then stored at −70° C. until further analysis. Thereafter, concentrations of lactate dehydrogenase (LDH), aspartate aminotransferase (AST), and alanine aminotransferase (ALT) in the blood serum were measured by using a biochemical analyzer (AU480 chemistry analyzer, Beckman Coulter Inc., Brea, CA, USA)."}},
  "data": [
    {"smiles": "OO", "note": "[H2O2]", "values": [
      {"measurement": "cell viability", "setting": "C2C12 cells", "result": "statistically significant decrease in cell viability"}
    ]},
    {"smiles": "C[C@]12C/C(=C/O)C(=O)C[C@@H]1CC[C@@H]1[C@@H]2CC[C@@]2(C)[C@H]1CC[C@]2(C)O", "note": "[oxymetholone]", "values": [
      {"measurement": "hanging time on the Rotarod", "setting": "BALB/c mice [1]", "result": "statistically significant increase in the time spent hanging on the Rotarod"}
    ]},
    {"smiles": "C[C@@H]1C[C@H]2[C@@H]3CCC4=CC(=O)C=C[C@]4(C)[C@@]3(F)[C@@H](O)C[C@]2(C)[C@@]1(O)C(=O)CO", "note": "[dexamethasone]", "values": [
      {"measurement": "LDH level in blood serum", "setting": "BALB/c mice [2]", "result": "elevated levels"},
      {"measurement": "ALT level in blood serum", "setting": "BALB/c mice [2]; compared to normal group", "result": "statistically significant increase"},
      {"measurement": "AST level in blood serum", "setting": "BALB/c mice [2]; compared to normal group", "result": "statistically significant increase"}
    ]}
  ]
}
